Source: US12268687B2, “Compounds and uses thereof” (JANSSEN PHARMACEUTICA NV, priority 2020, dated 2025)
Read-outs that look alike come from different tables or passages of the source.

Columns and labels:
SCD5 = SCD5 (Homo sapiens (Human), UniProt Q86SK9); assay: Growth inhibition of yeast strain expressing human SCD5 as the sole desaturase; type: cell-based
SCD1 = SCD1 (Homo sapiens (Human), UniProt O00767); assay: Growth inhibition of yeast strain expressing human SCD1 as the sole desaturase; type: cell-based
Sequence of SCD1 (O00767 whole entry): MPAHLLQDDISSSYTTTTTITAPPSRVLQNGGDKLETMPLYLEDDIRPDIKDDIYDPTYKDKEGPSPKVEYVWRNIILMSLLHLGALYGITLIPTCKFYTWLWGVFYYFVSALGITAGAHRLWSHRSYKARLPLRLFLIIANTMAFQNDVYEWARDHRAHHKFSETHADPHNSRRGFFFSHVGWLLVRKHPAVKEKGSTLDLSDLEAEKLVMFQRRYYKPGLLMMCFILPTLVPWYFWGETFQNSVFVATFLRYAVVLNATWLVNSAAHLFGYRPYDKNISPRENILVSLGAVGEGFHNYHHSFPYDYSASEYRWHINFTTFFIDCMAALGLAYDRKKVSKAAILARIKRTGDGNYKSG

[1] = ole1Δ yeast with human SCD5 plasmid, OD600 growth read at 40 h, top concentration 33.3 μM per method
[2] = ole1Δ yeast with human SCD1 plasmid, OD600 growth read at 40 h, top concentration 33.3 μM per method

Sequence of SCD5 (Q86SK9 whole entry): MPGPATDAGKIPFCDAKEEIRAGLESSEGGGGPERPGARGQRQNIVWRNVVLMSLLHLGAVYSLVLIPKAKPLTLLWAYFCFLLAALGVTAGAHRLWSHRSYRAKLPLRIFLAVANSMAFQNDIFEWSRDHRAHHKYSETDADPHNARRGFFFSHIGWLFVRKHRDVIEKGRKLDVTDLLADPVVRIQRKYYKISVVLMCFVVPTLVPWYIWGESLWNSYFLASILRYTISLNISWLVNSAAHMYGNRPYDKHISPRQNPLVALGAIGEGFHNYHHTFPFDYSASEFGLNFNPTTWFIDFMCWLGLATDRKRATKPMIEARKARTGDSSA

| Compound | IC50 (SCD5; [1]) [nM] | IC50 (SCD1; [2]) [nM] | IC50 (SCD5) [nM] | IC50 (SCD1) [nM] |
| --- | --- | --- | --- | --- |
| Cn1nc(NC(=O)C2CCN(Cc3cccc(Cl)c3)CC2)ccc1=O [Compound 136, 1-(3-chlorobenzyl)-N-(1-methyl-6-oxo-1,6-dihydropyridazin-3-yl)piperidine-4-carboxamide] | > 45000 | > 45000 |  |  |
| Cn1nc(NC(=O)N2CCC(Cc3cc(F)cc(F)c3)CC2)ccc1=O [Compound 51, 4-(3,5-difluorobenzyl)-N-(1-methyl-6-oxo-1,6-dihydropyridazin-3-yl)piperidine-1-carboxamide] |  |  | 60 | 680 |
| 6-(3-(4-(3,5-difluorobenzyl)piperidin-1-yl)-1,2,4-oxadiazol-5-yl)-2-methylpyridazin-3(2H)-one [Compound 115] | 10 | 450 |  |  |
| Cn1nc(NC(=O)N2CCC(Oc3cccc(Cl)c3F)CC2)ccc1=O [Compound 77, 4-(3-chloro-2-fluorophenoxy)-N-(1-methyl-6-oxo-1,6-dihydropyridazin-3-yl)piperidine-1-carboxamide] | 740 | 910 |  |  |
| Cn1nc(NC(=O)N2CCC(Oc3cccc(F)c3Cl)CC2)ccc1=O [Compound 78, 4-(2-Chloro-3-fluorophenoxy)-N-(1-methyl-6-oxo-1,6-dihydropyridazin-3-yl)piperidine-1-carboxamide] | 10 | 170 |  |  |
| Cn1cc(NC(=O)N2CCC(Cc3cc(F)cc(F)c3)CC2)ccc1=O [Compound 9] | 4220 | 14400 |  |  |
